Converted amounts (≈) assume the structure as drawn.
Experiments:
Assay in all cases: In vitro antibacterial evaluation: minimum inhibitory concentration (MIC), broth dilution method
Type in all cases: cell-based
Enterococcus sp. = settings: 18 hours at 35° C.
Procedure, shortened: (§1)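 Broth dilution per NCCLS M7-A2 in Muller-Hinton II […], inoculum 5×10^5 CFU/mL, antibiotic tested over 64-0.06 μg/mL. MIC is taken as the lowest concentration that inhibits growth. Panel includes recent clinical isolates resistant to methicillin, penicillin and/or vancomycin.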

Escherichia coli = settings: 18 hours at 35° C.
Procedure, shortened: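 Test strains, among them recent clinical isolates carrying methicillin, penicillin and/or vancomycin resistance, were inoculated at 5×10^5 CFU/mL. A broth dilution series spanning 64-0.06 μg/mL in Muller-Hinton II […] (NCCLS M7-A2) defined the MIC as the lowest growth-inhibiting concentration.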

Staphylococcus sp. = system: Staphylococcus sp.
Procedure, shortened: as §1

Streptococcus sp. = settings: 18 hours at 35° C.
Procedure, shortened: as §1

[1] = broth dilution, inoculum 5×10^5 CFU/mL

SMILES: N=C1NCC(C(O)C2NC(=O)C(Cc3ccc(OC4OC(CO)C(OC5OC6COC(Cc7ccccc7)OC6C(O)C5O)C(O)C4O)cc3)NC(=O)C(CC3CCCCC3)NC(=O)CNC(=O)C(CO)NC(=O)C(C(O)C3CNC(=N)N3C3OC(CO)C(O)C(O)C3O)NC2=O)N1 (stereo not drawn) [Example 200, Cyclo[3-cyclohexylalanyl-O-[4-O-[4,6-O-phenethylidene-hexopyranosyl]hexopyranosyl]tyrosyl-3-(2-iminoimidazolidin-4-yl)seryl-3-(3-hexopyranosyl-2-iminoimidazolidin-4-yl)serylserylglycyl]]
- MIC Enterococcus avium (GC 4558) (Enterococcus sp.; Enterococcus avium (GC 4558)): 4 µg/mL (≈ 2.88 µM)
- MIC Enterococcus faecalis (ATCC 29212) (Enterococcus sp.; Enterococcus faecalis (ATCC 29212)): 4 µg/mL (≈ 2.88 µM)
- MIC Enterococcus faecalis (GC 2242) (Enterococcus sp.; Enterococcus faecalis (GC 2242)): 0.5 µg/mL (≈ 0.36 µM)
- MIC Enterococcus faecalis (GC 2691) (Enterococcus sp.; Enterococcus faecalis (GC 2691)): 4 µg/mL (≈ 2.88 µM)
- MIC Enterococcus faecalis (GC 3059) (Enterococcus sp.; Enterococcus faecalis (GC 3059)): 2 µg/mL (≈ 1.44 µM)
- MIC Enterococcus faecalis (GC 4552) (Enterococcus sp.; Enterococcus faecalis (GC 4552)): 2 µg/mL (≈ 1.44 µM)
- MIC Enterococcus faecalis (GC 4553) (Enterococcus sp.; Enterococcus faecalis (GC 4553)): 4 µg/mL (≈ 2.88 µM)
- MIC Enterococcus faecalis (GC 4554) (Enterococcus sp.; Enterococcus faecalis (GC 4554)): 4 µg/mL (≈ 2.88 µM)
- MIC Enterococcus faecalis (GC 6189) (Enterococcus sp.; Enterococcus faecalis (GC 6189)): 2 µg/mL (≈ 1.44 µM)
- MIC Enterococcus faecium (GC 2243) (Enterococcus sp.; Enterococcus faecium (GC 2243)): 4 µg/mL (≈ 2.88 µM)
- MIC Enterococcus faecium (GC 4556) (Enterococcus sp.; Enterococcus faecium (GC 4556)): 4 µg/mL (≈ 2.88 µM)
- MIC Enterococcus faecium (GC 4557) (Enterococcus sp.; Enterococcus faecium (GC 4557)): 2 µg/mL (≈ 1.44 µM)
- MIC Enterococcus avium (GC 4558) (Enterococcus sp.; [1]): 4 µg/mL (≈ 2.88 µM)
- MIC Enterococcus faecalis (ATCC 29212) (Enterococcus sp.; [1]): 4 µg/mL (≈ 2.88 µM)
- MIC Enterococcus faecalis (GC 2242) (Enterococcus sp.; [1]): 0.5 µg/mL (≈ 0.36 µM)
- MIC Enterococcus faecalis (GC 2691) (Enterococcus sp.; [1]): 4 µg/mL (≈ 2.88 µM)
- MIC Enterococcus faecalis (GC 3059) (Enterococcus sp.; [1]): 2 µg/mL (≈ 1.44 µM)
- MIC Enterococcus faecalis (GC 4552) (Enterococcus sp.; [1]): 2 µg/mL (≈ 1.44 µM)
- MIC Enterococcus faecalis (GC 4553) (Enterococcus sp.; [1]): 4 µg/mL (≈ 2.88 µM)
- MIC Enterococcus faecalis (GC 4554) (Enterococcus sp.; [1]): 4 µg/mL (≈ 2.88 µM)
- MIC Enterococcus faecalis (GC 6189) (Enterococcus sp.; [1]): 2 µg/mL (≈ 1.44 µM)
- MIC Enterococcus faecium (GC 2243) (Enterococcus sp.; [1]): 4 µg/mL (≈ 2.88 µM)
- MIC Enterococcus faecium (GC 4556) (Enterococcus sp.; [1]): 4 µg/mL (≈ 2.88 µM)
- MIC Enterococcus faecium (GC 4557) (Enterococcus sp.; [1]): 2 µg/mL (≈ 1.44 µM)
- MIC Escherichia coli (ATCC 25922) (Escherichia coli; Escherichia coli (ATCC 25922)): 32 µg/mL (≈ 23 µM)
- MIC Escherichia coli (GC 4559) (Escherichia coli; Escherichia coli (GC 4559)): 32 µg/mL (≈ 23 µM)
- MIC Escherichia coli (GC 4560) (Escherichia coli; Escherichia coli (GC 4560)): 1 µg/mL (≈ 0.72 µM)
- MIC Staphylococcus aureus (ATCC 29213) (Staphylococcus sp.; strain ATCC 29213): 1 µg/mL (≈ 0.72 µM)
- MIC Staphylococcus aureus (GC 1131) (Staphylococcus sp.; strain GC 1131): 2 µg/mL (≈ 1.44 µM)
- MIC Staphylococcus aureus (GC 3051) (Staphylococcus sp.; strain GC 3051): 1 µg/mL (≈ 0.72 µM)
- MIC Staphylococcus aureus (GC 3053) (Staphylococcus sp.; strain GC 3053): 2 µg/mL (≈ 1.44 µM)
- MIC Staphylococcus aureus (GC 4541) (Staphylococcus sp.; strain GC 4541): 1 µg/mL (≈ 0.72 µM)
- MIC Staphylococcus aureus (GC 4542) (Staphylococcus sp.; strain GC 4542): 1 µg/mL (≈ 0.72 µM)
- MIC Staphylococcus aureus-SMITH (GC 4543) (Staphylococcus sp.; strain GC 4543): 1 µg/mL (≈ 0.72 µM)
- MIC Staphylococcus aureus (GC 4544) (Staphylococcus sp.; strain GC 4544): 2 µg/mL (≈ 1.44 µM)
- MIC Staphylococcus aureus (GC 4545) (Staphylococcus sp.; strain GC 4545): 1 µg/mL (≈ 0.72 µM)
- MIC Staphylococcus haemolyticus (GC 4546) (Staphylococcus sp.; strain GC 4546): 1 µg/mL (≈ 0.72 µM)
- MIC Coagulase Negative Staphylococcus (GC 4547) (Staphylococcus sp.; strain GC 4547): 2 µg/mL (≈ 1.44 µM)
- MIC Coagulase Negative Staphylococcus (GC 4548) (Staphylococcus sp.; strain GC 4548): 1 µg/mL (≈ 0.72 µM)
- MIC Coagulase Negative Staphylococcus (GC 4549) (Staphylococcus sp.; strain GC 4549): 1 µg/mL (≈ 0.72 µM)
- MIC Coagulase Negative Staphylococcus (GC 4551) (Staphylococcus sp.; strain GC 4551): 2 µg/mL (≈ 1.44 µM)
- MIC Streptococcus agalactiae (GC 4564) (Streptococcus sp.; Streptococcus agalactiae (GC 4564)): 0.12 µg/mL (≈ 0.0864 µM)
- MIC Streptococcus pneumoniae (ATCC 6301) (Streptococcus sp.; Streptococcus pneumoniae (ATCC 6301)): <0.06 µg/mL
- MIC Streptococcus pneumoniae (GC 1894) (Streptococcus sp.; Streptococcus pneumoniae (GC 1894)): <0.06 µg/mL
- MIC Streptococcus pneumoniae (GC 4565) (Streptococcus sp.; Streptococcus pneumoniae (GC 4565)): <0.06 µg/mL
- MIC Streptococcus pyogenes (GC 4563) (Streptococcus sp.; Streptococcus pyogenes (GC 4563)): <0.06 µg/mL
- MIC Streptococcus agalactiae (GC 4564) (Streptococcus sp.; [1]): 0.12 µg/mL (≈ 0.0864 µM)
- MIC Streptococcus pneumoniae (ATCC 6301) (Streptococcus sp.; [1]): <0.06 µg/mL
- MIC Streptococcus pneumoniae (GC 1894) (Streptococcus sp.; [1]): <0.06 µg/mL
- MIC Streptococcus pneumoniae (GC 4565) (Streptococcus sp.; [1]): <0.06 µg/mL
- MIC Streptococcus pyogenes (GC 4563) (Streptococcus sp.; [1]): <0.06 µg/mL
